“And” between values parts separate entries of the source, which are not always exact repeats. Equal values may be shown once. Read-outs that look alike come from different tables or passages of the source. Blank lines part the entries; values can stand above or below the compound they belong to.
Experiments:
[1] = Pharmacokinetic study: plasma kinetics after oral administration of free or encapsulated εVin; assay type: in vivo, rats; conditions: for occurrence of metabolites after oral administration: rats, both administration forms, data not shown; for k el: read-out: Lambda z (converted); for MRT: read-out: MRT (mean residence time) (converted); for half-life: read-out: T½; for AUC0-t: 0-4 h
Description: (§1) Experiments were conducted in accordance with Directive 2010/63/EU [51] and approved by the Bordeaux University Institutional Ethics Committee for Animal Research (IEC-AR CEEA 50, MESR approval A18380). Male Wistar rats (Janvier-LABS, Saint Berthevin, France) were maintained in controlled conditions: 12 h light/12 h dark cycle, humidity 50–60% and an ambient temperature of 24 ± 1 °C (animal facility agreement number: B33-063-917). Free access to food and water was allowed up to 16 h before experiments started. Rats were randomly divided into two groups. Group A (n = 5, average weight = 307.8 ± 7.7 g) received εVin dissolved in propylene glycol (5.25 mg/mL), while group B (n = 6, average weight = 308 ± 10.7 g) received the same dose of εVin but encapsulated in MLLs and suspended in ultra-pure water. Both solutions were administrated by oral gavage and precisely measured to reach a dose of 20 mg/kg bw of εVin. Blood was collected through the tail vein, making a slanting incision during the first collection. Rats were slightly anesthetized by isoflurane before every blood sample collection (600 µL) at the following time points: 20, 40, 60, 100, 140, 180 and 210 min after gavage. They were sacrificed at 240 min by a high dose of isoflurane and rapid exsanguination with saline solution injected in the right ventricular cardiac cavity with a peristaltic pump (10 mL/min). All blood samples were collected in heparinized tubes and centrifuged (10,000× g, 10 min) before sampling plasma. The liver, kidneys and four white adipose tissues (epididymal, retroperitoneal, mesenteric and subcutaneous) were removed, weighed and immediately immersed in liquid nitrogen. All blood and tissues samples were kept at −80 °C until analysis.
(§2) Extractions were performed as previously described with some modifications to improve quantification. For plasma extraction, 360 µL of methanol (4 °C) were added to an aliquot of 120 µL of plasma. The sample was vortexed during three minutes before centrifugation (30 min, 12,000× g, 4 °C). The supernatant (380 µL) was removed and evaporated using a SpeedVac concentrator (Labconco CentriVap, Thermo Fisher Scientific, Waltham, MA, USA). Residue was kept in −80 °C before analysis. For tissues extraction, tissues (about 0.5 g) were first cut with scalpels before being mixed with 4 mL of methanol:water (80:20, v:v). Samples were homogenized with an Ultra-Turrax homogenizer (IKA, Staufen, Deutschland) before being intensely vortexed. Then, samples were centrifuged 20 min at 10,000× g and 4 °C before sampling 3 mL of supernatant. All supernatants were evaporated using a SpeedVac concentrator and kept at −80 °C. Residues were reconstituted in 60 µL and 250 µL of methanol:water (50:50, v:v) or plasma and tissue, respectively. They were vortexed intensely and centrifuged at 12,000× g during 30 min at 4 °C before being injected the supernatant in LC-HRMS.
(§3) The quantification of εVin and the total of glucuronides (εVG) in plasma and tissues was performed as previously described with some modifications concerning the mass parameters. The U-HPLC separation was carried out with a Vanquish Flex system (Thermo Fisher Scientific, Les Ulis, France) consisting in a binary pump, an autosampler and a heated column compartment. The liquid chromatography separation was performed as previously detailed using C18 column (BEH C18 2.1 mm × 100 mm, 1.7 µm particle size, Waters, Guyancourt, France). The flow rate was set as 450 µL/min. The injection volume was 5 µL and the eluents were 0.1% formic acid in water for A and 0.1% formic acid in acetonitrile for B. The eluent B varied as follows: 0 min, 25%; 0.5 min, 25%; 3.6 min, 50%; 3.9 min, 50%; 4 min, 100%; 5.7 min, 100%; 5.8 min, 25%; 7 min, 25%. The column and sample temperature were 30 °C and 20 °C, respectively. The Exactive benchtrop Orbitrap mass spectrometer equipped with a HESI probe (both from Thermo Fisher Scientific, Bremen, Germany) was used. […]

[2] = design: method as in PMID 27175336; conditions: rats, oral 70 mg/kg bw, after hydrolysis with glucuronidase; cited from earlier work
[3] = Quantification in plasma, liver, kidneys and white adipose tissues 4 h after oral administration; assay type: in vivo; conditions: rats, 4 h after oral 20 mg/kg bw εVin
Description: as §1, §2, §3

[4] = Literature pharmacokinetics of εVin after oral administration in mice (Kim et al.); assay type: in vivo; conditions: oral 40 mg/kg bw (ref 31) versus 20 mg/kg bw in this study
[5] = design: method as in PMID 27902942; conditions: mice, oral 40 mg/kg bw; cited from earlier work
[6] = design: method as in PMID 30400351; conditions: rats, intraperitoneal injection, cited from earlier work; for Cmax: metabolites expressed as equivalent of the native form
[7] = male, Wistar, rat, plasma, po, 20 mg/kg, rat plasma, oral 20 mg/kg bw εVin, encapsulated form (MLLs)
[8] = male, Wistar, rat, plasma, po, 20 mg/kg, rat plasma, oral 20 mg/kg bw εVin, free form
[9] = rat plasma, oral 20 mg/kg bw εVin, encapsulated form (MLLs)
[10] = rat plasma, oral 20 mg/kg bw εVin, free form
[11] = rat plasma, oral 20 mg/kg bw εVin, free form, 20 mg/kg

occurrence of metabolites after oral administration [1]: traces
Compound: O=C(O)C1OC(Oc2ccc(C3Oc4cc(O)cc(C=Cc5ccc(O)cc5)c4C3c3cc(O)cc(O)c3)cc2)C(O)C(O)C1O (stereo not drawn) [V1G]

occurrence of metabolites after oral administration [1]: largely in majority
Compound: O=C(O)[C@H]1O[C@@H](Oc2cc(/C=C/c3ccc(O)cc3)c3c(c2)O[C@H](c2ccc(O)cc2)[C@H]3c2cc(O)cc(O)c2)[C@H](O)[C@@H](O)[C@@H]1O [V2G]

occurrence of metabolites after oral administration [1]: traces
Compound: O=C(O)C1OC(Oc2ccc(C=Cc3cc(O)cc4c3C(c3cc(O)cc(O)c3)C(c3ccc(O)cc3)O4)cc2)C(O)C(O)C1O (stereo not drawn) [V4G]

Compound: Oc1ccc([C@H]2Oc3ccc(/C=C/c4cc(O)cc(O)c4)cc3[C@@H]2c2cc(O)cc(O)c2)cc1 [δ-viniferin]
concentration of glucuronide metabolites relative to the native form [2]: up to 7 fold

Cmax [1, 7]: 11.7 ± 7.3 nM
k el [1, 7]: 0.000137 s⁻¹
MRT [1, 7]: 3.27 h
Tmax ([1]; male, Wistar, rat, plasma, po, 20 mg/kg, rat plasma, oral 20 mg/kg bw εVin, encapsulated form (MLLs), read-out: Tmax (converted)): 0.333 h
half-life [1, 7]: 1.91 ± 1.34 h
Cmax [1, 8]: 15 ± 11 nM
k el [1, 8]: 0.000345 s⁻¹
MRT [1, 8]: 2.12 h
Tmax ([1]; male, Wistar, rat, plasma, po, 20 mg/kg, rat plasma, oral 20 mg/kg bw εVin, free form, read-out: Tmax (converted)): 1 h
half-life [1, 8]: 0.917 ± 0.565 h
AUC0–∞ [1, 9]: 1660.1 ± 1313.1 pmol/mL/min
AUC0-t [1, 9]: 1009.8 ± 328.3 pmol/mL/min
AUC0–∞ [1, 10]: 1919.7 ± 955.2 pmol/mL/min
AUC0-t [1, 10]: 1689.1 ± 682.0 pmol/mL/min
Cmax [1, 11]: 15.3 ± 10.5 nM
concentration in kidneys ([3]; free form): ≤ 10 pmol/g of tissue
concentration in liver ([3]; free form): ≤ 10 pmol/g of tissue
concentration in mesenteric adipose tissue ([3]; free form): 92 ± 84 pmol/g of tissue
concentration in subcutaneous adipose tissue ([3]; free form): 23 ± 12 pmol/g of tissue
concentration in the three other adipose depots (epididymal, retroperitoneal, subcutaneous) ([3]; free form): around 20 pmol/g of tissue
AUC0-∞ of the literature study relative to the values of this study [4]: 3.6 times
Compound: Oc1ccc(/C=C/c2cc(O)cc3c2[C@@H](c2cc(O)cc(O)c2)[C@H](c2ccc(O)cc2)O3)cc1 [εVin, Trans-ε-viniferin]
bioavailability [5]: 0.77%
maximal concentration (Cmax) [5]: 42 ng/mL
Cmax [6]: 3090 ng/mL

increase of T1/2 by the encapsulation procedure ([1]; rat plasma, encapsulated versus free form, p < 0.05): ~3 times
AUC0–∞ [1, 9]: 432,315.4 ± 106,406.4 pmol/mL/min
Cmax [1, 9]: 1750 ± 876 nM
Lambda z [1, 9]: 0.0074 ± 0.0036 * min^−1
Tmax [1, 9]: 1.67 h
AUC0-t [1, 9]: 307,086.4 ± 316,383.9 pmol/mL/min
T½ ([1]; rat plasma, oral 20 mg/kg bw εVin, encapsulated form (MLLs), 20 mg/kg): 1.98 ± 1.08 h
AUC0–∞ [1, 10]: 264,191.0 ± 123,786.4 pmol/mL/min
Cmax [1, 10]: 1670 ± 1100 nM
Lambda z [1, 10]: 0.0198 ± 0.0056 min⁻¹
MRT (mean residence time) [1, 10]: 2.062 ± 0.2 h
Tmax [1, 10]: 1.67 h
AUC0-t [1, 10]: 245,827.3 ± 114,219.8 pmol/mL/min
T½ [1, 11]: 0.633 ± 0.183 h and 0.637 ± 0.187 h
maximal plasma concentration of glucuronides relative to the aglycone (native) form ([1]; rat plasma, oral 20 mg/kg bw εVin, free form, listed as glucuronide forms, 20 mg/kg): more than 100 times
maximal plasma concentration of glucuronides relative to the aglycone (native) form ([1]; rat plasma, oral 20 mg/kg bw εVin, free form, listed as total glucuronides, 20 mg/kg): 108 times
concentration in kidneys ([3]; encapsulated form): 114 ± 12 pmol/g of tissue
concentration in liver ([3]; encapsulated form): 1206 ± 304 pmol/g of tissue
concentration in mesenteric adipose tissue ([3]; encapsulated form): 213 ± 81 pmol/g of tissue
concentration in plasma at 4 h ([3]; encapsulated form): 700 ± 175 nM
concentration in kidneys ([3]; free form): 76 ± 39 pmol/g of tissue
concentration in kidneys relative to the native molecule ([3]; free form): 14 times
concentration in liver ([3]; free form): 604 ± 320 pmol/g of tissue
concentration in liver relative to the native molecule ([3]; free form): 60 times
concentration in mesenteric adipose tissue ([3]; free form): 108 ± 75 pmol/g of tissue
concentration in plasma at 4 h ([3]; free form): 317 ± 186 nM
concentration in subcutaneous adipose tissue ([3]; free form): 105 ± 83 pmol/g of tissue
Compound: Trans-ε-viniferin-glucuronide [εVG]
Cmax [6]: 5160 ng/mL
Tmax [6]: 1 h

Source: publication PMC8708455, “Trans-ε-Viniferin Encapsulation in Multi-Lamellar Liposomes: Consequences on Pharmacokinetic Parameters, Biodistribution and Glucuronide Formation in Rats” (Nutrients, 2021)
